Test results: the CheMixHub viscosity set

Test: xn = mol fraction of the nth substance listed

ClC(Cl)(Cl)Cl + CCCCCCCCO
viscosity [mPa·s], 101 kPa
Details | 298.15 K | 308.15 K | 318.15 K
x2 = 0.023 | 0.92 | 0.796 | 0.696
x2 = 0.06 | 1 | – | –
x2 = 0.1038 | 1.1 | 0.937 | 0.805
x2 = 0.12 | 1.139 | – | –
x2 = 0.17 | 1.297 | – | –
x2 = 0.2244 | 1.468 | 1.221 | 1.029
x2 = 0.23 | 1.47 | – | –
x2 = 0.3266 | 1.867 | 1.527 | 1.255
x2 = 0.44 | 2.483 | – | –
x2 = 0.54 | 3.124 | – | –
x2 = 0.5645 | 3.223 | 2.495 | 1.946
x2 = 0.64 | 3.847 | – | –
x2 = 0.7021 | 4.311 | 3.197 | 2.447
x2 = 0.83 | 5.58 | – | –
x2 = 0.8568 | 5.746 | 4.172 | 3.118

ClC(Cl)(Cl)Cl + CC(=O)O
Details | viscosity [mPa·s]
298.15 K, 101 kPa, x2 = 0.1 | 0.84
298.15 K, 101 kPa, x2 = 0.22 | 0.822
298.15 K, 101 kPa, x2 = 0.31 | 0.811
298.15 K, 101 kPa, x2 = 0.39 | 0.808
298.15 K, 101 kPa, x2 = 0.63 | 0.832
298.15 K, 101 kPa, x2 = 0.72 | 0.863
298.15 K, 101 kPa, x2 = 0.79 | 0.9
298.15 K, 101 kPa, x2 = 0.91 | 1.007
298.15 K, 101.33 kPa, x2 = 0.214 | 0.82
298.15 K, 101.33 kPa, x2 = 0.418 | 0.804
298.15 K, 101.33 kPa, x2 = 0.608 | 0.816
298.15 K, 101.33 kPa, x2 = 0.805 | 0.92
303.15 K, 101 kPa, x1 = 0.0697 | 1.071
303.15 K, 101 kPa, x1 = 0.2172 | 0.995
303.15 K, 101 kPa, x1 = 0.7482 | 0.894
313.15 K, 101 kPa, x1 = 0.0697 | 0.982
313.15 K, 101 kPa, x1 = 0.2172 | 0.876
313.15 K, 101 kPa, x1 = 0.7482 | 0.791
323.15 K, 101 kPa, x1 = 0.0697 | 0.917
323.15 K, 101 kPa, x1 = 0.2172 | 0.804
323.15 K, 101 kPa, x1 = 0.7482 | 0.697

CC(C)[O-].CC(C)[O-].CC(C)[O-].CC(C)[O-].[Ti+4] + Cc1ccc(C)cc1
viscosity [mPa·s], 101.3 kPa
Details | x1 = 0.0401 | x1 = 0.0871 | x1 = 0.1382 | x1 = 0.1994 | x1 = 0.2719 | x1 = 0.3593 | x1 = 0.4654 | x1 = 0.5987 | x1 = 0.77
293.15 K | 0.671 | 0.7098 | 0.7652 | 0.8373 | 0.9143 | 1.042 | 1.235 | 1.53 | 2.053
303.15 K | 0.5881 | 0.6215 | 0.6649 | 0.7153 | 0.7695 | 0.855 | 0.9724 | 1.137 | 1.398
313.15 K | 0.5226 | 0.5494 | 0.5813 | 0.6238 | 0.6641 | 0.7258 | 0.8058 | 0.9111 | 1.063
323.15 K | 0.4655 | 0.4896 | 0.5162 | 0.5501 | 0.5849 | 0.6326 | 0.6922 | 0.7664 | 0.871

CCN(CC)CC + Cc1ccc(C)cc1
303.15 K, 101 kPa
Details | viscosity [mPa·s]
x1 = 0.0103 | 0.5611
x1 = 0.02055 | 0.5576
x1 = 0.03043 | 0.5525
x1 = 0.04261 | 0.5488
x1 = 0.05408 | 0.5433
x1 = 0.06646 | 0.5381
x1 = 0.07602 | 0.5342
x1 = 0.08463 | 0.5307
x1 = 0.09589 | 0.5253
x1 = 0.1075 | 0.5207

[Cl-].[Cl-].[Cu+2] + O
viscosity [mPa·s]
Details | x1 = 0.000905 | x1 = 0.00112 | x1 = 0.002247 | x1 = 0.002718 | x1 = 0.004484 | x1 = 0.00453 | x1 = 0.006344 | x1 = 0.008159 | x1 = 0.008927 | x1 = 0.0177
308.15 K, 101.3 kPa | – | 0.739 | 0.7708 | – | 0.8088 | – | – | – | 0.879 | 0.9692
308.15 K, 101.33 kPa | 0.7395 | – | – | 0.7712 | – | 0.8092 | 0.8409 | 0.879 | – | –
313.15 K, 101.3 kPa | – | 0.6675 | 0.697 | – | 0.7375 | – | – | – | 0.794 | 0.8595
313.15 K, 101.33 kPa | 0.668 | – | – | 0.6975 | – | 0.738 | 0.762 | 0.7945 | – | –
323.15 K, 101.3 kPa | – | 0.577 | 0.601 | – | 0.637 | – | – | – | 0.6967 | 0.7595
323.15 K, 101.33 kPa | 0.5775 | – | – | 0.6015 | – | 0.6375 | 0.6685 | 0.6972 | – | –

CCCC(C)=O + CC(=O)O
viscosity [mPa·s], 101 kPa
Details | x2 = 0.0997 | x2 = 0.1996 | x2 = 0.2989 | x2 = 0.3983 | x2 = 0.5013 | x2 = 0.6017 | x2 = 0.6987 | x2 = 0.8081 | x2 = 0.8922
298.15 K | 0.5074 | 0.5482 | 0.5923 | 0.6401 | 0.6986 | 0.7628 | 0.839 | 0.9225 | 1.011
308.15 K | 0.4551 | 0.4882 | 0.5246 | 0.5655 | 0.6134 | 0.667 | 0.727 | 0.8006 | 0.878
318.15 K | 0.4061 | 0.4339 | 0.4639 | 0.4989 | 0.5394 | 0.5838 | 0.635 | 0.6961 | 0.7519

Oc1nc(O)nc(O)n1 + c1ccncc1
Details | viscosity [mPa·s]
298.15 K, 101 kPa, x1 = 0.0199 | 1.038

CCCC(C)=O + CC(C)=O
viscosity [mPa·s], 101 kPa
Details | x1 = 0.2 | x1 = 0.4 | x1 = 0.6 | x1 = 0.8
293.15 K | 0.355 | 0.391 | 0.429 | 0.467
313.15 K | 0.294 | 0.322 | 0.349 | 0.377

ClC(Cl)(Cl)Cl + ClCCCl
303.15 K, 101.3 kPa
Details | viscosity [mPa·s]
x2 = 0.1081 | 0.7755
x2 = 0.1414 | 0.7609
x2 = 0.1994 | 0.739
x2 = 0.3171 | 0.7081
x2 = 0.3777 | 0.6975
x2 = 0.5001 | 0.6832
x2 = 0.5454 | 0.6817
x2 = 0.5978 | 0.6814
x2 = 0.6503 | 0.6809
x2 = 0.6758 | 0.6824
x2 = 0.7592 | 0.6879
x2 = 0.8193 | 0.6942
x2 = 0.8711 | 0.7016
x2 = 0.8965 | 0.7055
x2 = 0.934 | 0.7126
